Laboratory results: patent US10730889B2, “Amido spirocyclic amide and sulfonamide derivatives” (Forma TM, LLC, priority 2012, dated 2020)
Like-named read-outs stand apart in the source and are kept apart here.

Test system: A2780 cells
Experiment: In-vitro cell proliferation assay (SRB, 72 hours)
Type: cell-based
Details: Homo sapiens, A2780, 72 h, read-out: Cell Proliferation (IC50)
Protocol: Assay 2: In-Vitro Cell Proliferation Assay
Assay Method. […] The compounds were then further diluted to 10× final concentration in culture media, whereupon 20 μL of each dilution was added to the plated cells with controls (e.g. DMSO and blank) to make a final volume of 200 μL. The final DMSO concentration in each well was 0.1%. The plates were then incubated for 72 hours at 37° C. in a 5% CO2 incubator. The number of viable cells was then assessed using sulforhodamine B (SRB) assay. Cells were fixed at 4° C. for 1 hour with the addition of 50 μL 30% trichloroacetic acid (TCA) to make a final concentration of 6% TCA. The plates were washed four times with H2O and allowed to dry for at least 1 hour, whereupon 100 μL of a 4% SRB in 1% acetic acid solution was added to each well and incubated at room temperature for at least 30 min. The plates were then washed three times with 1% acetic acid, dried, and treated with 100 μL of 10 mM Tris-Base solution. The plates were then read in a microplate reader at an absorbance of 570 nm. Background was generated on a separate plate with media only.
Determination of IC50 Values. First, the signals from the background plate were averaged, then the background was subtracted from the test plates.

Row | Compound | IC50 (A2780 cells, 72 hours, SRB) | IC50
1 | O=C(NCC1CC12CCN(C(=O)CN1CCCCC1)CC2)c1cc2ccncc2o1 (stereo not drawn) [Example 35, N-[[6-[2-(1-piperidyl)acetyl]-6-azaspiro[2.5]octan-2-yl]methyl]furo[2,3-c]pyridine-2-carboxamide] | 2000 nM | –
2 | O=C(NCC1CC12CCN(C(=O)CC1CCOCC1)CC2)c1cc2ccncc2o1 (stereo not drawn) [Example 36, N-[[6-(2-tetrahydropyran-4-ylacetyl)-6-azaspiro[2.5]octan-2-yl]methyl]furo[2,3-c]pyridine-2-carboxamide] | 185 nM | –
3 | O=C(NCC1CC12CCN(C(=O)CC1CCCO1)CC2)c1cc2ccncc2o1 (stereo not drawn) [Example 37, N-[[6-(2-tetrahydrofuran-2-ylacetyl)-6-azasptro[2.5]octan-2-yl]methyl]furo[2,3-c]pyridine-2-carboxamide] | 643 nM | –
4 | CC(C)(C)OCC(=O)N1CCC2(CC1)CC2CNC(=O)c1cc2ccncc2o1 (stereo not drawn) [Example 38, N-[[6-(2-tert-butoxyacetyl)-6-azaspiro[2.5]octan-2-yl]methyl]furo[2,3-c]pyridine-2-carboxamide] | 18.8 nM | –
5 | O=C(NCC1CC12CCN(C(=O)Cc1cccnc1)CC2)c1cc2ccncc2o1 (stereo not drawn) [Example 39, N-[[6-[2-(3-pyridyl)acetyl]-6-azaspiro[2.5]octan-2-yl]methyl]furo[2,3-c]pyndine-2-carboxamide] | 232 nM | –
6 | O=C(NCC1CC12CCN(C(=O)CC1CCN(CC(F)(F)F)CC1)CC2)c1cc2cnccc2[nH]1 (stereo not drawn) [Example 40, N-[[6-[2-[1-(2,2,2-trifluoroethyl)-4-piperidyl]acetyl]-6-azaspiro[2.5]octan-2-yl]methyl]-1H-pyrrolo[3,2-c]pyridine-2-carboxamide] | 24.3 nM | –
7 | CC(C)CC(=O)N1CCC2(CC1)CC2CNC(=O)c1cc2cnccc2[nH]1 (stereo not drawn) [Example 46, N-[[6-(3-methylbutanoyl)-6-azaspiro[2.5]octan-2-yl]methyl]-1H-pyrrolo[3,2-c]pyridine-2-carboxamide] | 402 nM | –
8 | O=C(Cc1ccccc1)N1CCC2(CC1)CC2CNC(=O)N1Cc2ccncc2C1 (stereo not drawn) [Example 47, N-[[6-(2-phenylacetyl)-6-azaspiro[2.5]octan-2-yl]methyl]-1,3-dihydropyrrolo[3,4-c]pyridine-2-carboxamide] | 12.6 nM | –
9 | O=C(NCC1CC12CCN(C(=O)Cc1cnccn1)CC2)c1cc2ccncc2o1 (stereo not drawn) [Example 50, N-[[6-(2-pyrazin-2-ylacetyl)-6-azasptro[2.5]octan-2-yl]methyl]furo[2,3-c]pyridine-2-carboxamide] | 2000 nM | –
10 | O=C(NCC1CC12CCN(C(=O)CN1CCOCC1)CC2)c1cc2ccncc2o1 (stereo not drawn) [Example 51, N-[[6-(2-morpholinoacetyl)-6-azaspiro[2.5]octan-2-yl]methyl]furo[2,3-c]pyridine-2-carboxamide] | 367 nM | –
11 | O=C(NCC1CC12CCN(C(=O)CC1CCCCO1)CC2)c1cc2ccncc2o1 (stereo not drawn) [Example 52, N-[[6-(2-tetrahydropyran-2-ylacetyl)-6-azaspiro[2.5]octan-2-yl]methyl]furo[2,3-c]pyridine-2-carboxamide] | 674 nM | –
12 | CC(C(=O)N1CCC2(CC1)CC2CNC(=O)c1cc2ccncc2o1)N1CCCC1 (stereo not drawn) [Example 53, N-[[6-(2-pyrrolidin-1-ylpropanoyl)-6-azaspiro[2.5]octan-2-yl]methyl]furo[2,3-c]pyridine-2-carboxamide] | 846 nM | –
13 | CN(C)C(=O)CCC(=O)N1CCC2(CC1)CC2CNC(=O)c1cc2ccncc2o1 (stereo not drawn) [Example 55, N-[[6-[4-(dimethylamino)-4-oxo-butanoyl]-6-azaspiro[2.5]octan-2-yl]methyl]furo[2,3-c]pyridine-2-carboxamide] | 2000 nM | –
14 | CN1CC(C(=O)N2CCC3(CC2)CC3CNC(=O)c2cc3ccncc3o2)CC1=O (stereo not drawn) [Example 56, N-[[6-(1-methyl-5-oxo-pyrrolidine-3-carbonyl)-6-azaspiro[2.5]octan-2-yl]methyl]furo[2,3-c]pyridine-2-carboxamide] | 2000 nM | –
15 | O=C(NCC1CC12CCN(C(=O)CN1CCCC1=O)CC2)c1cc2ccncc2o1 (stereo not drawn) [Example 57, N-[[6-[2-(2-oxopyrrolidin-1-yl)acetyl]-6-azaspiro[2.5]octan-2-yl)methyl]furo[2,3-c]pyridine-2-carboxamide] | 1600 nM | –
16 | O=C(NCC1CC12CCN(C(=O)C1CC1(F)F)CC2)c1cc2ccncc2o1 (stereo not drawn) [Example 58, N-[[6-(2,2-difluorocyclopropanecarbonyl)-6-azaspiro[2.5]octan-2-yl]methyl]furo(2,3-c]pyridine-2-carboxamide] | – | 2000 nM
17 | O=C(NCC1CC12CCN(C(=O)C1CCOC1)CC2)c1cc2ccncc2o1 (stereo not drawn) [Example 59, N-[[6-(tetrahydrofuran-3-carbonyl)-6-azaspiro[2.5]octan-2-yl]methyl]furo[2,3-c]pyridine-2-carboxamide] | 2000 nM | –
18 | O=C(NCC1CC12CCN(C(=O)C1CCOCC1)CC2)c1cc2ccncc2o1 (stereo not drawn) [Example 60, N-[[6-(tetrahydropyran-4-carbonyl)-6-azaspiro[2.5]octan-2-yl]methyl]furo[2,3-c]pyridine-2-carboxamide] | 1530 nM | –

Row | Compound | IC50 (A2780 cells, 72 hours, SRB) | IC50
19 | O=C(NCC1CC12CCN(C(=O)C1CCCO1)CC2)c1cc2ccncc2o1 (stereo not drawn) [Example 61, N-[[6-(tetrahydrofuran-2-carbonyl)-6-azaspiro[2.5]octan-2-yl]methyl]furo[2,3-c]pyridine-2-carboxamide] | 2000 nM | –
20 | O=CNCC(=O)N1CCC2(CC1)CC2CNC(=O)c1cc2ccncc2o1 (stereo not drawn) [Example 62, N-[[6-(2-formamidoacetyl)-6-azaspiro[2.5]octan-2-yl]methyl]furo[2,3-c]pyridine-2-carboxamide] | 2000 nM | –
21 | Cc1cc(C)n(CCC(=O)N2CCC3(CC2)CC3CNC(=O)c2cc3ccncc3o2)n1 (stereo not drawn) [Example 63, N-[[6-[3-(3,5-dimethylpyrazol-1-yl)propanoyl]-6-azaspiro[2.5]octan-2-yl]methyl]furo[2,3-c]pyridine-2-carboxamide] | 1390 nM | –
22 | NC(=O)N1CCCC1C(=O)N1CCC2(CC1)CC2CNC(=O)c1cc2ccncc2o1 (stereo not drawn) [Example 64, N-[[6-(1-carbamoylpyrrolidine-2-carbonyl)-6-azaspiro[2.5]octan-2-yl]methyl]furo[2,3-c]pyridine-2-carboxamide] | 2000 nM | –
23 | O=C(NCC1CC12CCN(C(=O)CCN1CCOCC1)CC2)c1cc2ccncc2o1 (stereo not drawn) [Example 65, N-[[6-(3-morpholinopropanoyl)-6-azaspiro[2.5]octan-2-yl]methyl]furo[2,3-c]pyridine-2-carboxamide] | 931 nM | –
24 | O=C(NCC1CC12CCN(C(=O)C1CCS(=O)(=O)C1)CC2)c1cc2ccncc2o1 (stereo not drawn) [Example 66, N-[[6-(1,1-dioxothiolane-3-carbonyl)-6-azaspiro[2.5]octan-2-yl]methyl]furo[2,3-c]pyridine-2-carboxamide] | 2000 nM | –
25 | Cc1cc(C)n(CC(=O)N2CCC3(CC2)CC3CNC(=O)c2cc3ccncc3o2)n1 (stereo not drawn) [Example 67, N-[[6-[2-(3,5-dimethylpyrazol-1-yl)acetyl]-6-azaspiro[2.5]octan-2-yl]methyl]furo[2,3-c]pyridine-2-carboxamidc] | 193 nM | –
26 | CC(=O)N1CCCC1C(=O)N1CCC2(CC1)CC2CNC(=O)c1cc2ccncc2o1 (stereo not drawn) [Example 68, N-[[6-(1-acetylpyrrolidine-2-carbonyl)-6-azaspiro[2.5]octan-2-yl]methyl]furo[2,3-c]pyridine-2-carboxamide] | 414 nM | –
27 | CS(=O)(=O)c1ccccc1C(=O)N1CCC2(CC1)CC2CNC(=O)c1cc2ccncc2o1 (stereo not drawn) [Example 69, N-[[6-(2-methylsulfonylbenzoyl)-6-azaspiro[2.5]octan-2-yl]methyl]furo[2,3-c]pyridine-2-carboxamide] | 194 nM | –
28 | O=C(NCC1CC12CCN(C(=O)c1cccc(-n3cnnc3)c1)CC2)c1cc2ccncc2o1 (stereo not drawn) [Example 70, N-[[6-[3-(1,2,4-triazol-4-yl)benzoyl]-6-azaspiro[2.5]octan-2-yl]methyl]furo[2,3-c]pyridine-2-carboxamide] | 492 nM | –
29 | CC(=O)Nc1ccc(C(=O)N2CCC3(CC2)CC3CNC(=O)c2cc3ccncc3o2)cc1 (stereo not drawn) [Example 72, N-[[6-(4-acetamidobenzoyl)-6-azaspiro[2.5]octan-2-yl]methyl]furo[2,3-c]pyridine-2-carboxamide] | 48.1 nM | –
30 | CS(=O)(=O)N1CCCC(C(=O)N2CCC3(CC2)CC3CNC(=O)c2cc3ccncc3o2)C1 (stereo not drawn) [Example 73, N-[[6-(1-methylsulfonylpiperidine-3-carbonyl)-6-azaspiro[2.5]octan-2-yl]methyl]furo[2,3-c]pyridine-2-carboxamide] | 25.8 nM | –
31 | CS(=O)(=O)N1CCC(C(=O)N2CCC3(CC2)CC3CNC(=O)c2cc3ccncc3o2)CC1 (stereo not drawn) [Example 74, N-[[6-(1-methylsulfonylpiperidine-4-carbonyl)-6-azaspiro[2.5]octan-2-yl]methyl]furo[2,3-c]pyridine-2-carboxamide] | 169 nM | –
32 | CC(C(=O)N1CCC2(CC1)CC2CNC(=O)c1cc2ccncc2o1)N1CCOCC1 (stereo not drawn) [Example 75, N-[[6-(2-morpholinopropanoyl)-6-azaspiro[2.5]octan-2-yl]methyl]furo[2,3-c]pyridine-2-carboxamide] | 80.9 nM | –
33 | CS(=O)(=O)N1CCCC1C(=O)N1CCC2(CC1)CC2CNC(=O)c1cc2ccncc2o1 (stereo not drawn) [Example 76, N-[[6-(1-methylsulfonylpyrrolidine-2-carbonyl)-6-azaspiro[2.5]octan-2-yl]methyl]furo[2,3-c]pyridine-2-carboxamide] | 228 nM | –
34 | O=C(NCC1CC12CCN(C(=O)CC1NC(=O)c3ccccc31)CC2)c1cc2ccncc2o1 (stereo not drawn) [Example 77, N-[[6-[2-(3-oxoisoindolin-1-yl)acetyl]-6-azaspiro[2.5]octan-2-yl]methyl]furo[2,3-c]pyridine-2-carboxamide] | 1150 nM | –
35 | NC(=O)N1CCC(C(=O)N2CCC3(CC2)CC3CNC(=O)c2cc3ccncc3o2)CC1 (stereo not drawn) [Example 78, N-[[6-(1-carbamoylpiperidme-4-carbonyl)-6-azaspiro[2.5]octan-2-y]methyl]furo(2,3-c]pyridine-2-carboxamide] | 2000 nM | –
36 | NC(=O)N1CCCC(C(=O)N2CCC3(CC2)CC3CNC(=O)c2cc3ccncc3o2)C1 (stereo not drawn) [Example 79, N-[[6-(1-carbamoylpiperidine-3-carbonyl)-6-azaspiro[2.5]octan-2-yl]methyl]furo[2,3-c]pyridine-2-carboxamide] | 2000 nM | –
